Reference: patent US20190111059A1, “COMPOSITIONS AND METHODS FOR TREATING AUTISM SPECTRUM DISORDER” (Marinus Pharmaceuticals, Inc., priority 2017, published 2019)
Structures can show the parent of a compound that is named as a salt.

Assays:
[1] = tested on: children with non-syndromic autism spectrum disorder (ASD) and language impairment; assay: Randomized placebo-controlled trial: Ohio Autism Clinical Impression Scale (OACIS); assay type: in vivo, human; conditions: lower = less severity
Protocol: The Ohio Autism Clinical Impression Scale (“OACIS”) is an observer-rated scale sensitive to clinically meaningful changes in ASD symptoms. […] Severity of each symptom was rated by the first author at baseline and at the final assessment by observing the entire assessment of verbal communication. In validation studies a 0.5-point change was considered clinically meaningful. This two-arm double-blind randomized placebo-controlled parallel study with a 1:1 allocation was performed at Arkansas Children's Research Institute (Little Rock, Ark., USA) from 4 Jun. 2012 to 22 Nov. 2013. Those confirmed to have language impairment were randomized to the folinic acid or placebo group and a fasting blood sample was obtained. Randomization was performed using a random number generator with a block size of four. The research pharmacists had exclusive access to the randomization allocation. After breakfast, the participants returned for language, developmental and behavioral assessments. Following these assessments the family was given the 12 weeks of the intervention and was instructed on its administration. Language, developmental and behavioral assessments were repeated after 12 weeks of treatment. The target dose of the intervention (INN: DL folinic acid calcium salt; USAN: leucovorin calcium) was 2 mg kg^−1 per day (maximum 50 mg per day) in two equally divided doses with half of the target dose given during the first 2 weeks. Dye-free, milk-product-free, vegetarian capsules were provided in three strengths (5, 10 and 25 mg) by Lee Silsby Compounding Pharmacy (Cleveland Heights, Ohio, USA). Certificate of analysis was provided for each capsule strength by an independent analytical service (Eagle Analytical Services, Houston, Tex., USA) for each batch of capsules produced. In all cases, potency was at least 99%. Secondary outcomes. Secondary outcome measures included the Ohio Autism Clinical Impression Scale (OACIS), Vineland Adaptive Behavior Scale 2nd Edition (VABS) Survey Interview Form and several questionnaires. Parents and teachers were asked to complete the Aberrant Behavior Checklist (ABC), Social Responsiveness Scale (SRS) and Behavioral Assessment System for Children 2nd Edition (BASC). Only parents were asked to complete the Autism Impact Measure (AIM) and Autism Symptoms Questionnaire (ASQ). Secondary outcome measures were analyzed using the mixed-model regression. Because of the large number of secondary outcomes, correction for multiple comparisons was conducted using the false discovery rate.

[2] = tested on: children with non-syndromic autism spectrum disorder (ASD) and language impairment; assay: Randomized placebo-controlled trial: Autism Impact Measure (AIM); assay type: in vivo, human; conditions: lower = less impact
Protocol: The Autism Impact Measure (“AIM”) is a 45-item parent-reported measure of the frequency and impact of core ASD symptoms during the past 2 weeks using two 5-point scales of increasing severity ranging from 1 to 5.51 The Frequency and Impact scores range 45-225. This two-arm double-blind randomized placebo-controlled parallel study with a 1:1 allocation was performed at Arkansas Children's Research Institute (Little Rock, Ark., USA) from 4 Jun. 2012 to 22 Nov. 2013. Parent and teacher questionnaires were requested at baseline and 6 and 12 weeks after starting treatment. Parents were asked to deliver baseline questionnaires to teachers or therapists. After the first visit, questionnaires were mailed to the parents and teachers at least 1 week prior to the target date of completion. Parents were asked to bring the completed teacher and parent 12-week questionnaires to the final assessment. Other questionnaires were returned in a preaddressed postage-paid envelope. The target dose of the intervention (INN: DL folinic acid calcium salt; USAN: leucovorin calcium) was 2 mg kg^−1 per day (maximum 50 mg per day) in two equally divided doses with half of the target dose given during the first 2 weeks. Dye-free, milk-product-free, vegetarian capsules were provided in three strengths (5, 10 and 25 mg) by Lee Silsby Compounding Pharmacy (Cleveland Heights, Ohio, USA). Certificate of analysis was provided for each capsule strength by an independent analytical service (Eagle Analytical Services, Houston, Tex., USA) for each batch of capsules produced. In all cases, potency was at least 99%. Secondary outcomes. Secondary outcome measures included the Ohio Autism Clinical Impression Scale (OACIS), Vineland Adaptive Behavior Scale 2nd Edition (VABS) Survey Interview Form and several questionnaires. Parents and teachers were asked to complete the Aberrant Behavior Checklist (ABC), Social Responsiveness Scale (SRS) and Behavioral Assessment System for Children 2nd Edition (BASC). Only parents were asked to complete the Autism Impact Measure (AIM) and Autism Symptoms Questionnaire (ASQ). Secondary outcome measures were analyzed using the mixed-model regression. Because of the large number of secondary outcomes, correction for multiple comparisons was conducted using the false discovery rate.

[3] = tested on: children with ASD and low CSF folate concentrations; conditions: high-dose; case reports and series; cited from earlier work
[4] = 2 mg kg^−1 per day, 12 weeks, baseline 4.4
[5] = vs placebo, mixed-model regression

Nc1nc2c(c(=O)[nH]1)N(C=O)C(CNc1ccc(C(=O)N[C@@H](CCC(=O)O)C(=O)O)cc1)CN2 (mixture of isomers) [Folinic acid, DL folinic acid calcium salt]
OACIS Sensory sensitivity, 12-week assessment mean ([1]; 2 mg kg^−1 per day, 12 weeks, baseline 1.6): 1.4 Severity
OACIS Restricted interest, 12-week assessment mean ([1]; 2 mg kg^−1 per day, 12 weeks, baseline 2.3): 2.0 Severity
OACIS Anxiety, 12-week assessment mean ([1]; 2 mg kg^−1 per day, 12 weeks, baseline 2.5): 2.3 Severity
OACIS Repetitive behavior, 12-week assessment mean ([1]; 2 mg kg^−1 per day, 12 weeks, baseline 3.2): 2.5 Severity
OACIS Non-verbal communication, 12-week assessment mean ([1]; 2 mg kg^−1 per day, 12 weeks, baseline 3.6): 3.3 Severity
OACIS Aberrant behavior, 12-week assessment mean ([1]; 2 mg kg^−1 per day, 12 weeks, baseline 3.8): 3.4 Severity
OACIS Hyperactivity, 12-week assessment mean ([1]; 2 mg kg^−1 per day, 12 weeks, baseline 4.1): 3.8 Severity
OACIS Social, 12-week assessment mean ([1]; 2 mg kg^−1 per day, 12 weeks, baseline 4.3): 3.8 Severity
OACIS Autistic behavior, 12-week assessment mean [1, 4]: 4.0 Severity
OACIS Verbal communication, 12-week assessment mean [1, 4]: 3.8 Severity
OACIS Aberrant behavior, estimated effect [1, 5]: −0.3 Severity
OACIS Anxiety, estimated effect [1, 5]: −0.1 Severity
OACIS Autistic behavior, estimated effect [1, 5]: −0.2 Severity
OACIS Hyperactivity, estimated effect [1, 5]: −0.3 Severity
OACIS Non-verbal communication, estimated effect [1, 5]: −0.0 Severity
OACIS Repetitive behavior, estimated effect [1, 5]: −0.4 Severity
OACIS Restricted interest, estimated effect [1, 5]: −0.2 Severity
OACIS Sensory sensitivity, estimated effect [1, 5]: −0.3 Severity
OACIS Social, estimated effect [1, 5]: −0.1 Severity
OACIS Verbal communication, estimated effect [1, 5]: −0.2 Severity
AIM Impact, 12-week assessment mean ([2]; 2 mg kg^−1 per day, 12 weeks, baseline 105): 87 Raw Scores
AIM Frequency, 12-week assessment mean ([2]; 2 mg kg^−1 per day, 12 weeks, baseline 135): 114 Raw Scores
AIM Frequency, estimated effect [2, 5]: −2.2 Raw Scores
AIM Impact, estimated effect [2, 5]: 3.4 Raw Scores
Symptoms in children with ASD and low CSF folate concentrations [3]: markedly improves symptoms
